Measured values published in ChEMBL document CHEMBL3399996, “Marine natural products as inhibitors of cystathionine beta-synthase activity” (Bioorg Med Chem Lett, 2015).

Target: T1, Cystathionine beta-synthase (Homo sapiens, UniProt P35520)
T1 sequence (P35520 whole entry): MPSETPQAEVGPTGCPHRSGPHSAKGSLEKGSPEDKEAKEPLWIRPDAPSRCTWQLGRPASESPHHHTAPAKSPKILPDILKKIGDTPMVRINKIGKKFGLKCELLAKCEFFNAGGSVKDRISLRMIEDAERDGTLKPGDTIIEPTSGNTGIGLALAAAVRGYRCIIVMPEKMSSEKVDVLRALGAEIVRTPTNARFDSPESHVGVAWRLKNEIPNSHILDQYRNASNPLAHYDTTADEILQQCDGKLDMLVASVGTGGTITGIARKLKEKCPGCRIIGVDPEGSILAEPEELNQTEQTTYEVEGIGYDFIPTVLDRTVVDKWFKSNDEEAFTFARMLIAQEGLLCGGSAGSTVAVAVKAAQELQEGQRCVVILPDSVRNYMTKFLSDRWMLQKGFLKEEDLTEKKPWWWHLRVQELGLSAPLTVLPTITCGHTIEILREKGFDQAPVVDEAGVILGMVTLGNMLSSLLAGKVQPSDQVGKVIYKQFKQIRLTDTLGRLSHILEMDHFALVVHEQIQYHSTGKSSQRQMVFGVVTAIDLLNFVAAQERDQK
Test: Inhibition of full-length wild-type cystathionine beta-synthase (unknown origin) assessed as inhibition of H2S production by fluorescence assay in presence of S-adenosylmethionine

| Compound | IC50 |
| --- | --- |
| COc1cc(/C=C2\NC(=S)NC2=O)ccc1O | 187 µM |
| O=C1NC(=S)N/C1=C\c1ccc(O)c(O)c1 | 125 µM |
| COc1cc(/C=C2\NC(=S)NC2=O)ccc1OC(C)=O | 83 µM |
| COc1cc(/C=C2\N=C(SC)N(C)C2=O)ccc1O | 87 µM |
| C[C@@]12CCC(=O)c3coc(c31)C(=O)c1cc3cccc(OS(=O)(=O)O)c3cc12 | 136 µM |
| O=C1NC(=S)N/C1=C\c1ccccc1 | 170 µM |
| NC(=O)c1cc(Br)c(Br)[nH]1 | 156 µM |
| O=C1C=C(c2cc(Br)c(O)c(Br)c2)/C(=C/c2cc(Br)c(O)c(Br)c2)O1 [RUBROLIDE A] | 108 µM |
